Some test systems named below: HCT-15 colon; MALME-3M melanoma; TK-10 renal; SR leukemia; SF-539 CNS; UACC-62 melanoma; NCI-H226 lung; NCI-H522 lung; K-562 leukemia; HOP-62 NSCLC.
Experiment in all cases: inhibition of tumour cell growth, NCI panel, 48 h

These results are taken from PubChem BioAssay (NCI).

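Protocol summary: plate cells (96-well), add compound at 5 concentrations, incubate 48 h, interpolate endpoints linearly. GI50: concentration for 50% inhibition of growth. TGI denotes the concentration required for complete inhibition of growth.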

In the case of `O=C1CSC2(CC(/C=C/c3ccccc3)=NN2c2cccc(S(=O)(=O)O)c2)N1c1nc2ccccc2s1` (stereo not drawn), the TGI with HCT-15 colon is more than 100 µM; in the experiment on MALME-3M melanoma it was more than 100 µM; in the experiment on TK-10 renal, 46.9 µM; in the experiment with SR leukemia, 61 µM; in the experiment on SF-539 CNS it was more than 100 µM; in the experiment on UACC-62 melanoma it was 45.2 µM. Also, the TGI in the experiment with NCI-H226 lung is more than 100 µM; in the experiment on NCI-H522 lung, 37 µM; in the experiment with K-562 leukemia it was more than 100 µM.
Regarding `O=C(Cc1ccccc1)NCCc1ccc(O)c(O)c1`, the TGI is more than 100 µM in the experiment with HCT-15 colon; more than 100 µM in the experiment on MALME-3M melanoma; more than 100 µM in the experiment with TK-10 renal; 73.3 µM with SR leukemia; more than 100 µM in the experiment with HOP-62 NSCLC; more than 100 µM in the experiment with SF-539 CNS. Also, the TGI in the experiment on UACC-62 melanoma was more than 100 µM; in the experiment on NCI-H226 lung, more than 100 µM; with NCI-H522 lung, more than 100 µM; with K-562 leukemia, 39.8 µM.
As for `CCCC(=O)O`, the TGI was more than 18700 µM in the experiment with HCT-15 colon; more than 18700 µM in the experiment on MALME-3M melanoma; more than 18700 µM in the experiment with TK-10 renal; 5340 µM in the experiment on SR leukemia; more than 18700 µM with HOP-62 NSCLC; 16900 µM in the experiment with SF-539 CNS. Besides, the figures for the TGI with UACC-62 melanoma, in the experiment on NCI-H226 lung and in the experiment on NCI-H522 lung were 4930 µM, more than 18700 µM and more than 18700 µM, respectively. Further, the GI50 in the experiment on MALME-3M melanoma is 3490 µM; in the experiment on TK-10 renal it was 2120 µM.
For `CC1=NN(C(=O)CSc2nnc(SCC(=O)N3N=C(C)CC3(O)c3ccccc3)s2)C(O)(c2ccccc2)C1` (stereo not drawn), the TGI in the experiment on HCT-15 colon is more than 100 µM; in the experiment on MALME-3M melanoma it was more than 100 µM; in the experiment on TK-10 renal, more than 100 µM; in the experiment on SR leukemia, more than 100 µM; in the experiment on HOP-62 NSCLC, more than 100 µM; in the experiment on UACC-62 melanoma it was 56.3 µM. Besides, the TGI with NCI-H522 lung and in the experiment on K-562 leukemia was more than 100 µM throughout.
Regarding `COC(=O)c1c2c(cc3c1CC1(Cc4ccccc4C1=O)C3)CCC2` (stereo not drawn), the TGI with HCT-15 colon is more than 100 µM; in the experiment on MALME-3M melanoma, 79.9 µM; in the experiment on TK-10 renal, more than 100 µM; with SR leukemia, 58.5 µM; in the experiment with HOP-62 NSCLC it was more than 100 µM; in the experiment with SF-539 CNS, more than 100 µM. In addition, the TGI in the experiment with NCI-H226 lung was 44.2 µM; in the experiment with NCI-H522 lung, more than 100 µM; in the experiment with K-562 leukemia it was more than 100 µM.
With `O=c1cc(CNC2CCCC2)[nH]c(=O)[nH]1`, the TGI in the experiment with HCT-15 colon, in the experiment with MALME-3M melanoma, with TK-10 renal, with SR leukemia, in the experiment on HOP-62 NSCLC and with SF-539 CNS was more than 100 µM throughout. The TGI in the experiment with UACC-62 melanoma, in the experiment on NCI-H522 lung and with K-562 leukemia was more than 100 µM each time.
Consider `C=CCNC(=S)Nc1sc2c(c1C(=O)OCC)CC(C)CC2` (stereo not drawn), for which the TGI in the experiment on HCT-15 colon was more than 100 µM; with MALME-3M melanoma, 45.8 µM; with TK-10 renal, 63.7 µM; in the experiment with SR leukemia, 53.6 µM; with HOP-62 NSCLC, 65.1 µM; in the experiment with UACC-62 melanoma, 46.7 µM. Moreover, the TGI in the experiment with NCI-H226 lung was 50.7 µM; with NCI-H522 lung it was 46.4 µM; with K-562 leukemia, more than 100 µM.
Consider `CN1C/C(=C\c2cccs2)C2=NC(=S)NC(c3cccs3)C2C1` (stereo not drawn), for which the TGI with HCT-15 colon is more than 100 µM; in the experiment on MALME-3M melanoma it was more than 100 µM; in the experiment on TK-10 renal it was more than 100 µM; in the experiment on SR leukemia, 54.2 µM; in the experiment with HOP-62 NSCLC, more than 100 µM; with UACC-62 melanoma, more than 100 µM. In addition, the TGI in the experiment on NCI-H226 lung, in the experiment on NCI-H522 lung and with K-562 leukemia was more than 100 µM each time.
With `O=C(c1ccccc1)c1ccc2c(c1)nc1n2C(c2c(Cl)cccc2Cl)SC1` (stereo not drawn), the TGI in the experiment with HCT-15 colon, in the experiment with MALME-3M melanoma, in the experiment on TK-10 renal, with SR leukemia, in the experiment on HOP-62 NSCLC and in the experiment with SF-539 CNS was more than 100 µM each time. The TGI in the experiment on UACC-62 melanoma, with NCI-H226 lung and in the experiment on NCI-H522 lung was more than 100 µM throughout.
Turning to `O=C(CSc1nnc(-c2ccc(N=Cc3ccc(Cl)cc3)cc2)o1)Nc1ccccc1Cl`, the TGI with HCT-15 colon, with MALME-3M melanoma, with TK-10 renal, in the experiment with SR leukemia, in the experiment with HOP-62 NSCLC and in the experiment with UACC-62 melanoma was more than 100 µM throughout. Moreover, the TGI with NCI-H226 lung, in the experiment on NCI-H522 lung and with K-562 leukemia was more than 100 µM in each case.
Regarding `C1=C\SS/C=C\SS/C=C\SS/C=C\SS/1`, the TGI with HCT-15 colon was 55.8 µM; in the experiment with MALME-3M melanoma it was more than 100 µM; in the experiment with TK-10 renal, more than 100 µM; in the experiment on SR leukemia it was more than 100 µM; in the experiment with HOP-62 NSCLC, more than 100 µM; in the experiment with UACC-62 melanoma, more than 100 µM. Further, the TGI was more than 100 µM with NCI-H226 lung, 84.4 µM in the experiment with NCI-H522 lung and 64 µM in the experiment on K-562 leukemia.
Take `C=C(C)C(=O)CC[C@@H](C)[C@H]1[C@@H](OC2OC(CO)C(O)C(O)C2O)C[C@@]2(C)[C@@H]3C[C@H](O)C4C(C)(C)[C@@H](OC5OC(CO)C(O)C(O)C5O)CC[C@@]45C[C@@]35CC[C@]12C` (stereo partly drawn): the TGI in the experiment with HCT-15 colon, with MALME-3M melanoma, with TK-10 renal, in the experiment with SR leukemia, with HOP-62 NSCLC and in the experiment on SF-539 CNS was more than 100 µM throughout. Besides, the TGI in the experiment on UACC-62 melanoma, with NCI-H522 lung and with K-562 leukemia was more than 100 µM throughout.
On to `CCc1nn(CN2CCN(C)CC2)c(=S)n1/N=C\c1ccc(-c2ccc([N+](=O)[O-])cc2)o1`, for which the TGI in the experiment on HCT-15 colon was more than 100 µM; in the experiment with MALME-3M melanoma, more than 100 µM; with TK-10 renal, 71.3 µM; in the experiment on SR leukemia, more than 100 µM; in the experiment with HOP-62 NSCLC, more than 100 µM; in the experiment on UACC-62 melanoma, more than 100 µM. Further, the TGI in the experiment with NCI-H226 lung is 86.4 µM; with NCI-H522 lung, more than 100 µM; in the experiment with K-562 leukemia, more than 100 µM.
As to `S=c1sc2c(Cl)ncnc2n1-c1ccccc1`, the TGI is 28.4 µM with HCT-15 colon; 23.9 µM with MALME-3M melanoma; 33.2 µM in the experiment on TK-10 renal; 9.36 µM in the experiment with SR leukemia; 29.3 µM in the experiment with HOP-62 NSCLC; 29.9 µM in the experiment with SF-539 CNS. Also, the TGI stood at 21.4 µM in the experiment on UACC-62 melanoma, 26.4 µM with NCI-H226 lung and 3.8 µM in the experiment with NCI-H522 lung.
